From patent US10781224B2, “Bis(oxymethyl)phosphinic acid and biogenic metal salts thereof as regulators of plant growth and development” (priority 2016, dated 2020)

Experiments:
[1] = tested on: corn (Krasnodar 385 MV variety); test: Corn seed treatment with BHMPA salts: germinating power; assay type: in vivo
Summary of the method: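 Seeds (50 per Petri dish on two layers of filter paper) soaked 1 h in BHMPA or its Ca, Mg, Na, Co, Mn, Cu or Zn salts at 1·10^−6-1·10^−12%, with water controls. Germination energy read on day 4, germination on day 8 (wheat) or day 7 (rice, corn), as % means of four replicates. Germinating power taken as root and sprout length plus wet and dry mass per 100 seedlings.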

[2] = tested on: winter wheat (Vershin variety); test: Winter wheat seed treatment with BHMPA salts: germination energy and germination rate; assay type: in vivo
Summary of the method: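 Corn, winter wheat and rice seeds (50 per dish, on filter paper) were soaked for 1 h in BHMPA or its metal salts at 1·10^−6-1·10^−12%, with water as control. Germination energy was read on day 4 and germination rate on day 8 for wheat and day 7 for rice and corn, following GOST 12038-84, as the mean of four replicates.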

[3] = corn seeds, solution concentration 1 · 10^−6%, cobalt salt of BHMPA
[4] = corn seeds, solution concentration 1 · 10^−7%, cobalt salt of BHMPA
[5] = corn seeds, solution concentration 1 · 10^−8%, cobalt salt of BHMPA
[6] = corn seeds, solution concentration 1 · 10^−9%, cobalt salt of BHMPA
[7] = corn seeds, solution concentration 1 · 10^−10%, cobalt salt of BHMPA
[8] = corn seeds, solution concentration 1 · 10^−11%, cobalt salt of BHMPA
[9] = corn seeds, solution concentration 1 · 10^−12%, cobalt salt of BHMPA
[10] = winter wheat Vershin, 1·10^−6% solution
[11] = winter wheat Vershin, 1·10^−7% solution
[12] = winter wheat Vershin, 1·10^−8% solution
[13] = winter wheat Vershin, 1·10^−9% solution
[14] = winter wheat Vershin, 1·10^−10% solution
[15] = winter wheat Vershin, 1·10^−11% solution
[16] = winter wheat Vershin, 1·10^−12% solution
[17] = winter wheat, comparative study vs Melaphen, 1·10^−10% solution

SMILES: O.O.O=P([O-])(CO)CO.O=P([O-])(CO)CO.[Co+2] [Co-salt, Cobalt BHMPA Salt]
- optimum concentration for treating corn seeds before sowing ([1]; corn): 1·10^−7%
- Length, root [1, 3]: 5.0 cm
- Length, root, + % to control [1, 3]: 6%
- Length, sprout [1, 3]: 3.2 cm
- Length, sprout, + % to control [1, 3]: 7%
- Mass, dry, root [1, 3]: 1.31 g/100 plantlings
- Mass, dry, root, + % to control [1, 3]: 5%
- Mass, dry, sprout [1, 3]: 1.09 g/100 plantlings
- Mass, dry, sprout, + % to control [1, 3]: 12%
- Mass, wet, root [1, 3]: 9.76 g/100 plantlings
- Mass, wet, root, + % to control [1, 3]: 9%
- Mass, wet, sprout [1, 3]: 7.75 g/100 plantlings
- Mass, wet, sprout, + % to control [1, 3]: 24.5%
- Length, root [1, 4]: 6.2 cm
- Length, root, + % to control [1, 4]: 32%
- Length, sprout [1, 4]: 3.8 cm
- Length, sprout, + % to control [1, 4]: 27%
- Mass, dry, root [1, 4]: 1.44 g/100 plantlings
- Mass, dry, sprout [1, 4]: 1.21 g/100 plantlings
- Mass, dry, sprout, + % to control [1, 4]: 25%
- Mass, wet, root [1, 4]: 10.77 g/100 plantlings
- Mass, wet, root, + % to control [1, 4]: 20%
- Mass, wet, sprout [1, 4]: 9.96 g/100 plantlings
- Mass, wet, sprout, + % to control [1, 4]: 60%
- Length, root [1, 5]: 5.6 cm
- Length, root, + % to control [1, 5]: 19%
- Length, sprout [1, 5]: 3.6 cm
- Length, sprout, + % to control [1, 5]: 20%
- Mass, dry, root [1, 5]: 1.37 g/100 plantlings
- Mass, dry, root, + % to control [1, 5]: 10%
- Mass, dry, sprout [1, 5]: 1.14 g/100 plantlings
- Mass, dry, sprout, + % to control [1, 5]: 17.5%
- Mass, wet, root [1, 5]: 10.17 g/100 plantlings
- Mass, wet, root, + % to control [1, 5]: 13%
- Mass, wet, sprout [1, 5]: 9.00 g/100 plantlings
- Mass, wet, sprout, + % to control [1, 5]: 45%
- Length, root [1, 6]: 5.0 cm
- Length, root, + % to control [1, 6]: 6%
- Length, sprout [1, 6]: 3.5 cm
- Length, sprout, + % to control [1, 6]: 17%
- Mass, dry, root [1, 6]: 1.31 g/100 plantlings
- Mass, dry, root, + % to control [1, 6]: 5%
- Mass, dry, sprout [1, 6]: 1.07 g/100 plantlings
- Mass, dry, sprout, + % to control [1, 6]: 10%
- Mass, wet, root [1, 6]: 10.00 g/100 plantlings
- Mass, wet, root, + % to control [1, 6]: 11%
- Mass, wet, sprout [1, 6]: 7.58 g/100 plantlings
- Mass, wet, sprout, + % to control [1, 6]: 22%
- Length, root [1, 7]: 4.9 cm
- Length, root, + % to control [1, 7]: 4%
- Length, sprout [1, 7]: 3.3 cm
- Length, sprout, + % to control [1, 7]: 10%
- Mass, dry, root [1, 7]: 1.29 g/100 plantlings
- Mass, dry, root, + % to control [1, 7]: 3%
- Mass, dry, sprout [1, 7]: 1.03 g/100 plantlings
- Mass, dry, sprout, + % to control [1, 7]: 6%
- Mass, wet, root [1, 7]: 9.80 g/100 plantlings
- Mass, wet, root, + % to control [1, 7]: 9%
- Mass, wet, sprout [1, 7]: 6.75 g/100 plantlings
- Mass, wet, sprout, + % to control [1, 7]: 8.5%
- Length, root [1, 8]: 4.5 cm
- Length, root, + % to control [1, 8]: −4%
- Length, sprout [1, 8]: 3.0 cm
- Length, sprout, + % to control [1, 8]: 0%
- Mass, dry, root [1, 8]: 1.27 g/100 plantlings
- Mass, dry, root, + % to control [1, 8]: 2%
- Mass, dry, sprout [1, 8]: 0.98 g/100 plantlings
- Mass, dry, sprout, + % to control [1, 8]: 1%
- Mass, wet, root [1, 8]: 9.62 g/100 plantlings
- Mass, wet, root, + % to control [1, 8]: 7%
- Mass, wet, sprout [1, 8]: 6.41 g/100 plantlings
- Mass, wet, sprout, + % to control [1, 8]: 3%
- Length, root [1, 9]: 4.2 cm
- Length, root, + % to control [1, 9]: −11%
- Length, sprout [1, 9]: 2.9 cm
- Length, sprout, + % to control [1, 9]: −3%
- Mass, dry, root [1, 9]: 1.22 g/100 plantlings
- Mass, dry, root, + % to control [1, 9]: −2%
- Mass, dry, sprout [1, 9]: 0.98 g/100 plantlings
- Mass, dry, sprout, + % to control [1, 9]: 1%
- Mass, wet, root [1, 9]: 9.28 g/100 plantlings
- Mass, wet, root, + % to control [1, 9]: 3%
- Mass, wet, sprout [1, 9]: 6.23 g/100 plantlings
- Mass, wet, sprout, + % to control [1, 9]: 0%
- Length, root, + % to control ([1]; corn, 1·10^−7% solution): 32%
- Length, sprout, + % to control ([1]; corn, 1·10^−7% solution): 27%
- Mass, dry, root, + % to control ([1]; corn, 1·10^−7% solution): 15%
- Mass, dry, sprout, + % to control ([1]; corn, 1·10^−7% solution): 25%
- Mass, wet, root, + % to control ([1]; corn, 1·10^−7% solution): 20%
- Mass, wet, sprout, + % to control ([1]; corn, 1·10^−7% solution): 60%
- germination intensity vs control ([1]; corn, 1·10^−11% and 1·10^−12% solutions): no increase in the germination intensity
- Germination energy [2, 10]: 89.2%
- Germination rate [2, 10]: 93.0%
- Germination energy [2, 11]: 91.4%
- Germination rate [2, 11]: 94.0%
- Germination energy [2, 12]: 92.8%
- Germination rate [2, 12]: 96.0%
- Germination energy [2, 13]: 94.3%
- Germination rate [2, 13]: 97.3%
- Germination energy [2, 14]: 95.6%
- Germination rate [2, 14]: 98.7%
- Germination energy [2, 15]: 94.7%
- Germination rate [2, 15]: 97.3%
- Germination energy [2, 16]: 92.0%
- Germination rate [2, 16]: 94.7%
- Germination energy [2, 17]: 93.7%
- Germination rate [2, 17]: 97.3%
